Biological target: T1, CRF1 receptor (Homo sapiens, UniProt P34998)
T1 construct: To induce CRF1 receptor expression, the cells are grown to approximately 80% confluence; endogenous in cells; host or cells: IMR-32 human neuroblastoma cells, BrdU-induced, as membrane homogenates
T1 sequence (P34998 24-415): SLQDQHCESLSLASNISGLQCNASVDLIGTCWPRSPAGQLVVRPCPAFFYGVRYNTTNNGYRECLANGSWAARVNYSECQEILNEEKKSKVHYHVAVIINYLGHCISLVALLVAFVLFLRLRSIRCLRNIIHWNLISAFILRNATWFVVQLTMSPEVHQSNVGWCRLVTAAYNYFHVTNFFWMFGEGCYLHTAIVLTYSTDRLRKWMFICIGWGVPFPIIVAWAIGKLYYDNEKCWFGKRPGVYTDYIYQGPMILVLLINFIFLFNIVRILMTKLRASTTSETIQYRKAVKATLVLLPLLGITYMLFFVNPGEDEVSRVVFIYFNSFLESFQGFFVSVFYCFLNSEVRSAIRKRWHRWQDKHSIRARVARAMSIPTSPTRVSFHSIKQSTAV
Test: standard in vitro CRF receptor binding assay (125I-CRF, IMR-32 cell membranes)
Conditions: Table I; asterisk = tested in the Example 30 assay, membranes of BrdU-induced IMR-32 cells, 125I-CRF 100 pM; read-out: Ki < 1 μM
Protocol: As discussed above, the following assay is defined herein as a standard in vitro CRF receptor binding assay. The pharmaceutical utility of compounds of this invention is indicated by the following assay for CRF1 receptor activity.
The CRF receptor binding is performed using a modified version of the assay described by Grigoriadis and De Souza (Methods in Neurosciences, Vol. 5, 1991). IMR-32 human neuroblastoma cells, a cell line that can be induced to express the CRF1 receptor, are cultured in growth medium consisting of EMEM w/Earle's BSS (JRH Biosciences, Cat# 51411) supplemented with 10% Fetal Bovine Serum, 25 mM HEPES (pH 7.2), 1 mM Sodium Pyruvate, and Non-Essential Amino Acids (JRH Biosciences, Cat# 58572). Stock cultures of cells are grown to confluence and subcultured twice per week at split ratios of 1:2 to 1:4 (cells are dislodged during subculturing using No-Zyme, JRH Biosciences, Cat# 59226). To induce CRF1 receptor expression, the cells are grown to approximately 80% confluence and then changed to growth media containing 2.5 μM 5-bromo-2′deoxyuridine (BrdU, Sigma, Cat# B9285). Growth media containing BrdU is replaced every 3–4 days and the cells are harvested via centrifugation (using No-Zyme) after 10 days of BrdU treatment. Harvested cells are stored frozen at −80° C. until needed for the preparation of membrane homogenates.
To prepare receptor-containing membranes cells are homogenized in wash buffer (50 mM Tris HCl, 10 mM MgCl2, 2 mM EGTA, pH 7.4) and centrifuged at 48,000×g for 10 minutes at 4° C. The pellet is re-suspended in wash buffer and the homogenization and centrifugation steps are performed once more.
Membrane pellets (containing CRF receptors) are resuspended and brought to a final concentration of 1.0 mg membrane protein/ml in binding buffer (Tris buffer above with 0.1% BSA and 0.1 mM bacitracin). For the binding assay, 150 microliters of the membrane preparation is added to 96 well microtube plates containing 50 microliters of ^125I-CRF (SA 2200 Ci/mmol, final concentration of 100 pM) and 2 microliters of test compound. Binding is carried out at room temperature for 2 hours. Plates are then harvested using 50 mM Tris buffer pH 7.4, on a BRANDEL 96 well cell harvester and filters (soaked in 1% PEI for 1.5 hours) are counted for gamma emissions on a Wallac 1205 BETAPLATE liquid scintillation counter. Non-specific binding is defined by 2 micromolar cold CRF. Ki values are calculated with the non-linear curve fitting program RS/1 (BBN Software Products Corp., Cambridge, Mass.).

| Molecule | Ki |
| --- | --- |
| CCc1nc(OC(CC)CC)c(NC)nc1-c1c(C)noc1C [Compound 5, [6-(3,5-Dimethyl-isoxazol-4-yl)-5-ethyl-3-(1-ethyl-propoxy)-pyrazin-2-yl]-methyl-amine] | < 1000 nM |
| CCC(CC)Nc1nc(C)c(-c2nc(OC)c(NC(CC)CC)nc2C)nc1OC [Compound 2, N-5,N-5′-Bis-(1-ethyl-propyl)-6,6′-dimethoxy-3,3′-dimethyl-[2,2′]bipyrazinyl-5,5′-diamine] | < 1000 nM |
| CCc1nc(OC(CC)CC)c(NC)nc1-c1ccc(C(C)C)nc1O [Compound 9, [5-Ethyl-6-(2-hydroxy-6-isopropyl-2-pyridin-3-yl)-3-(1-ethyl-propoxy)-pyrazin-2-yl]-methyl-amine] | < 1000 nM |
| CCc1cc(-c2nc(OC)c(NC(CC)CC)nc2C)c(C)nc1OC [Compound 1, [5-(5-Ethyl-6-methoxy-2-methyl-pyridin-3-yl)-3-methoxy-6-methyl-pyrazin-2-yl]-(1-ethyl-propyl)-amine] | < 1000 nM |
| CCc1nc(OC(CC)CC)c(NC)nc1-c1ccc(C(C)C)nc1N(C)C [Compound 11, [5-Ethyl-6-(2-dimethylamino-6-isopropyl-2-pyridin-3-yl)-3-(1-ethyl-propoxy)-pyrazin-2-yl]-methyl-amine] | < 1000 nM |
| CCc1nc(OC(CC)CC)c(NC)nc1-c1ccc(C(C)C)nc1N1CCC1 [Compound 13, [6-(2-Azetidin-1-yl-6-isopropyl-pyridin-3-yl)-5-ethyl-3-(1-ethyl-propoxy)-pyrazin-2-yl]-methyl-amine] | < 1000 nM |

Second part, the molecule after the results:

| Ki | Molecule |
| --- | --- |
| < 1000 nM | CCc1nc(OC(CC)CC)c(NC)nc1-c1ccc(C(C)C)nc1C [Compound 8, [5-Ethyl-6-(2-methyl-6-isopropyl-2-pyridin-3-yl)-3-(1-ethyl-propoxy)-pyrazin-2-yl]-methyl-amine] |
| < 1000 nM | CCc1cc(-c2nc(NC)c(OC(CC)CC)nc2CC)c(C)nc1OC [Compound 4, [5-Ethyl-6-(5-ethyl-6-methoxy-2-methyl-pyridin-3-yl)-3-(1-ethyl-propoxy)-pyrazin-2-yl]-methyl-amine] |
| < 1000 nM | [5-Ethyl-6-(2-ethyl-6-isopropoxy-2-pyridin-3-yl)-3-(1-ethyl-propoxy)-pyrazin-2-yl]-methyl-amine [Compound 6] |
| < 1000 nM | CCC(CC)Oc1nc(C)c(-c2cc(C)c(NC(C)C)nc2C)nc1NC [Compound 17, [3-(1-Ethyl-propoxy)-6-(6-isopropyl-amino-2,5-dimethyl-pyridin-3-yl)-5-methyl-pyrazin-2-yl]-methyl-amine] |
| < 1000 nM | [5-Ethyl-6-(2-ethoxy-6-isopropoxy-2-pyridin-3-yl)-3-(1-ethyl-propoxy)-pyrazin-2-yl]-methyl-amine [Compound 7] |
| < 1000 nM | CCc1nc(OC(CC)CC)c(NC)nc1-c1ccc(N(C)C)nc1C [Compound 10, [5-Ethyl-6-(2-methyl-6-dimethylamino-2-pyridin-3-yl)-3-(1-ethyl-propoxy)-pyrazin-2-yl]-methyl-amine] |
| < 1000 nM | CCc1nc(OC(CC)CC)c(NC)nc1-c1ccc(C(C)C)nc1N(CC)CC [Compound 14, [6-(2-Diethylamino-6-isopropyl-pyridin-3-yl)-5-ethyl-3-(1-ethyl-propoxy)-pyrazin-2-yl]-methyl-amine] |
| < 1000 nM | CCC(CC)Oc1nc(Br)c(-c2cc(Br)c(NC(C)C)nc2C)nc1NC [Compound 15, [3-(1-Ethyl-propoxy)-6-(6-isopropyl-amino-2-methyl-5-bromo-pyridin-3-yl)-5-bromo-pyrazin-2-yl]-methyl-amine] |
| < 1000 nM | CCc1cc(-c2nc(NC)c(OC(CC)CC)nc2C)c(C)nc1OC [Compound 3, [5-Methyl-6-(5-ethyl-6-methoxy-2-methyl-pyridin-3-yl)-3-(1-ethyl-propoxy)-pyrazin-2-yl]-methyl-amine] |
| < 1000 nM | CCc1cc(-c2nc(NC)c(OC(CC)CC)nc2CC)c(C)nc1N(C)C [Compound 16, [6-(6-Dimethylamino-5-ethyl-2-methyl-pyridin-3-yl)-5-ethyl-3-(1-ethyl-propoxy)-pyrazin-2-yl]-methyl-amine] |

From patent US7179807B2, “5-substituted-2-arylpyrazines” (Neurogen Corporation, priority 2002, dated 2007)
